Results on five compounds are retold here after PMC6599250, “Functional diversity of inhibitors tackling the differentiation blockage of MLL-rearranged leukemia” (Journal of Hematology & Oncology, 2019).

What is called IC50 is the concentration that inhibits the measured activity by half. Broadly, the EC50 is the concentration at which the effect is half-maximal.

For one assay, the system named is P-TEFb/CDK9. The conditions noted are these: read-out: On target Potency IC50; cited from earlier work.
Assay [1] has as its system MYC, PCNA, and MCL-1 levels. Also noted: method as in earlier work. The conditions noted are these: initial pharmacodynamics data analysis; cited from earlier work.
The target in a further assay is MENIN-MLL interaction (Homo sapiens, UniProt O00255). The assay is described as follows: On target potency, MENIN-MLL interaction. Type of assay: biochemical. From the text: Table 1 Inhibitors used in this study. Chemical structures of inhibitor used in this study tackling Menin-MLL1 interaction, BRD4/2/3, DOT1L, CDK9, and DHODH active sites, with respective biochemical IC50, rationale and current developmental status | column: BAY-155

The test system of the next assay is DHODH. Also on record: method as in PMID 2743343. As to conditions: read-out: On target Potency IC50; cited from earlier work.
Assay [2] relates to MLL-fused cell lines (MV4-11, MOLM-13). As to the kind of experiment: Cell proliferation, MLL-fused cell lines. As to conditions: 4 days of treatment (Fig. 1a), DMSO = 100%. It is filed as cell-based. On the procedure: Cells were seeded in the optimal growth medium at 4000–5000 cells/well in a 96 MTP and cultured 18–24 h before inhibitor treatment. Upon treatment with the indicated inhibitor, cells were cultured for 24 h, 96 h, and 168 h and effects on proliferation were determined using alamarBlue Cell Viability Reagent (Thermo Fisher Scientific, Waltham, MA, USA).

Assay [3] deals with H3K79me2 on HOXA9 and MEIS1. The conditions noted are these: clinical phase I study; cited from earlier work.
The next assay deals with BRD4/2/3. As to conditions: read-out: On target Potency EC50; cited from earlier work.

Sequence of MENIN-MLL interaction (O00255 whole entry): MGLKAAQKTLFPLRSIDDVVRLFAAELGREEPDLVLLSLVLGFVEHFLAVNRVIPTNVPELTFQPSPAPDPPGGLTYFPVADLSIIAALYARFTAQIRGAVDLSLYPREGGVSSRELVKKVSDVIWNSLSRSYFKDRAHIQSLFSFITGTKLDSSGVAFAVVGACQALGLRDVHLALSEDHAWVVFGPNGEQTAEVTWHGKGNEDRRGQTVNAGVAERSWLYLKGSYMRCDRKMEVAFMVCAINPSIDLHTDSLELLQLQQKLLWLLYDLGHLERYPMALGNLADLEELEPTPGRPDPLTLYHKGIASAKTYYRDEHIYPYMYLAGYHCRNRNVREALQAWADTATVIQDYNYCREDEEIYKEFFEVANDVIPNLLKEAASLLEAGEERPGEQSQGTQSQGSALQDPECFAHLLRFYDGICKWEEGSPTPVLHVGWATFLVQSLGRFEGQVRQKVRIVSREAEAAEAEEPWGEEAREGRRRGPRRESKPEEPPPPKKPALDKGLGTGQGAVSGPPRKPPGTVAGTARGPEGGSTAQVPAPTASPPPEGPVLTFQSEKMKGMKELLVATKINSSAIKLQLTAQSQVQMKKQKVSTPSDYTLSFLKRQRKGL

With `COc1cc(F)ccc1-c1cc(Nc2cc(CS(C)(=N)=O)ccn2)ncc1F` (stereo not shown) [BAY 1251152], the IC50 in the assay with P-TEFb/CDK9 was 3 nM. The “pharmacodynamics in phase I” value in assay [1] was “dose-dependent reduction of MYC, PCNA, and MCL-1 levels”.
With `Cc1c(CN2CCC3(CC2)CN(c2ncnc4sc(CC(F)(F)F)cc24)C3)ccc2c1cc(C#N)n2CC(N)=O` [BAY-155], the concentration for a half-maximal effect (EC50) on MENIN-MLL interaction is 8 nM.
Regarding `Cc1c(-c2ccc(-c3ccccc3F)cc2)nc2ccc(F)cc2c1C(=O)O` [Brequinar], in the assay on DHODH, the IC50 was […].
`CC(C)N(C[C@H]1O[C@@H](n2cnc3c(N)ncnc32)[C@H](O)[C@@H]1O)[C@H]1C[C@@H](CCc2nc3cc(C(C)(C)C)ccc3[nH]2)C1` [EPZ-5676]: the “proliferation inhibited to” value in assay [2] is given as 40–50%. Besides, in assay [3], the “H3K79me2 on HOXA9 and MEIS1 in AML patients” value was “significant reduction of H3K79me2 on HOXA9 and MEIS1”.
For the compound `Cc1sc2c(c1C)C(c1ccc(Cl)cc1)=N[C@@H](CC(=O)Nc1ccc(O)cc1)c1nnc(C)n1-2` [OTX015], the EC50 in the assay on BRD4/2/3 was 10 to 19 nM.
